The values below are quoted from earlier work in article PMC4990482 (Nature chemical biology, 2016).

Bounds are passed on as bounds.

The subject of this data set is EZH2.

Consider `CC[C@H](C)n1cc(C)c2c(C(=O)NCc3c(C)cc(C)[nH]c3=O)cc(-c3ccc(N4CCNCC4)nc3)cc21` [GSK126], for which the “selectivity for EZH2 versus EZH1” value was greater than 150 fold.
